Common to all, as to experiment: NCI anticancer screen, dose series, 48 h
In test [1] the test system is NCI-H460 lung.
Test [2] concerns UO-31 renal.
The subject of test [3] is HCT-15 colon.
The subject of test [4] is T-47D breast.
In test [5] the test system is A549 NSCLC.
Test [6] relates to MALME-3M melanoma.
For test [7], the system named is MDA-MB-231 breast.
The subject of test [8] is CAKI-1 renal.
In test [9] the test system is SNB-19 CNS.
Test [10] concerns SK-MEL-28 melanoma.

The results in this text go back to PubChem BioAssay (NCI).

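Assay format: 96-well plates, 48-hour exposure. GI50 is the concentration that inhibits growth by half. At the TGI there is no net growth.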 Bounds are passed on as bounds.

As to `COc1ccc(/C(C#N)=C/c2nc3c(N4CCOCC4)nc(Cl)nc3n2C)cc1OC`, the GI50 in [1] was less than 0.01 µM; in test [2], less than 0.01 µM; in [3] it was less than 0.01 µM; in test [4], 0.272 µM; in [5], less than 0.01 µM; in test [6], less than 0.0152 µM. Besides, the GI50 in test [7] was less than 0.0133 µM; in [8], less than 0.01 µM; in [9], less than 0.01 µM; in [10], 1.1 µM. Further, the TGI in test [1] worked out at 1.99 µM; in test [2], 1.65 µM; in [3], 1.62 µM; in test [4], 3.15 µM; in [5] it was 1.92 µM; in test [6], 2.01 µM. Besides, the TGI in test [7] is 2.46 µM; in [8] it was 1.38 µM; in test [9], 2.91 µM; in test [10] it was 2.43 µM.

For the molecule `CC(CC(C)[C@H]1CCC2[C@H]3C(CC[C@@]21C)[C@@]1(C)CCC(O)C[C@H]1C[C@@H]3O)C(=O)O` (stereo not given in full), the TGI in [1], in [2], in test [3], in [4], in [5] and in test [6] was greater than 100 µM each time. Further, the TGI in test [7], in [8], in test [9] and in test [10] was greater than 100 µM in each case.

With `O=C(O)CSc1ccn(Cc2ccccc2)c1`, the TGI in test [1], in test [2], in test [3], in [4], in test [5] and in test [6] was greater than 100 µM each time. Also, the TGI in [7], in test [8], in test [9] and in [10] was greater than 100 µM in each case.

As to `COc1ccc(C2CC(c3cccc(Nc4ccnc5cc(Cl)ccc45)c3)=NN2c2ccccc2)cc1` (stereo not given), the GI50 in [1] is 0.418 µM; in [2], 0.478 µM; in test [3], 0.335 µM; in [4], 0.171 µM; in [5], 2 µM; in test [6], 10.7 µM. The GI50 in test [7] is 1.31 µM; in test [8], 0.681 µM; in test [9], 6.9 µM; in test [10], 4.41 µM. For the same molecule, the TGI is 12.2 µM in [1]; 21.6 µM in test [2]; 14.7 µM in test [3]; 20 µM in [4]; greater than 100 µM in [5]; 42.7 µM in test [6]. The TGI in test [7] is 29.2 µM; in test [8], greater than 100 µM; in test [9], greater than 100 µM; in [10], 32.5 µM.

Take `COc1cc(C2C3=C(COC3=O)N(CCO)c3cc4c(cc32)OCCO4)cc(OC)c1O` (stereo not given): the GI50 in [1] is 1.75 µM; in [2], greater than 16.7 µM; in [3] it was 11.7 µM; in test [4], 3.38 µM; in [5], 9.71 µM; in test [6] it was 1.23 µM. For the same molecule, the GI50 in test [7] is 4.41 µM; in [8], 2.84 µM; in test [9] it was 2.11 µM; in [10], 1.15 µM. For the same molecule, the TGI in test [1] was greater than 28.5 µM; in [2], greater than 50 µM; in [3] it was greater than 50 µM; in [4], greater than 50 µM; in [5], greater than 50 µM; in test [6], greater than 50 µM. In addition, the TGI in test [7] is greater than 50 µM; in test [8], greater than 45 µM; in test [9] it was greater than 50 µM; in test [10], greater than 50 µM.

On to `COc1ccc2c(c1)Cc1cc(N=[N+]([O-])c3ccc4c(c3)Cc3cc(OC)ccc3-4)ccc1-2`, for which the TGI in test [1], in test [2], in test [3], in test [4], in test [5] and in test [6] was greater than 100 µM each time. The TGI in test [7], in test [8], in [9] and in test [10] was greater than 100 µM each time.

On to `COC(=O)c1ccc2c(c1)[n+](=O)c(C(C)=O)c(C(F)(F)F)n2[O-]`, for which the GI50 in test [1] was 1.81 µM; in test [2], 1.71 µM; in test [3], 1.83 µM; in [4], 2.06 µM; in test [5], 1.96 µM; in [6], 1.96 µM. In addition, the GI50 in [7] is 1.98 µM; in test [8], 1.94 µM; in test [9] it was 3.12 µM; in test [10], 4.31 µM. Also, the TGI in test [1] was 3.45 µM; in test [2], 3.15 µM; in test [3] it was 3.52 µM; in test [4] it was 4.2 µM; in test [5] it was 3.7 µM; in [6], 3.79 µM. The TGI in test [7] is 3.88 µM; in test [8] it was 5.07 µM; in test [9], 9.12 µM; in [10], 13.2 µM.

`CCCCCCCC(=O)SCC/C=C/[C@@H]1CC(=O)NCc2cccc(n2)CN(Cc2ccc(Cl)cc2)CC(=O)N[C@@H](C(C)C)C(=O)O1`: the GI50 was 5.45 µM in [1]; 6.27 µM in [2]; 20.1 µM in test [3]; 29.3 µM in test [4]; 12.1 µM in [5]; 3.12 µM in test [6]. Moreover, the GI50 in test [7] is 11.7 µM; in [8], 28 µM; in test [9], 22.6 µM; in [10], 5.04 µM. The TGI in test [1] is greater than 100 µM; in test [2] it was 48.9 µM; in test [3] it was greater than 100 µM; in test [4], 98.7 µM; in [5] it was 97.7 µM; in test [6], greater than 100 µM. Besides, the TGI is 68.8 µM in test [7], greater than 100 µM in test [8], greater than 100 µM in test [9] and greater than 100 µM in test [10].

Turning to `N=C(N)c1ccc(-c2ccc(-c3ccco3)o2)cc1`, the GI50 in test [1] was 2.43 µM; in test [2], 3.17 µM; in test [3], 2.58 µM; in test [4], 2.92 µM; in [5] it was 4.76 µM; in [6] it was 2.15 µM. Further, the GI50 in test [7] is 2.75 µM; in test [8], 3.94 µM; in test [9] it was 9.44 µM; in test [10] it was 2.31 µM. Further, the TGI amounted to 6.6 µM in [1]; 16.3 µM in test [2]; 7.22 µM in [3]; 12.7 µM in [4]; 18.9 µM in [5]; 4.12 µM in test [6]. The TGI in test [7] was 7.75 µM; in test [8] it was 16.6 µM; in [9], 23.2 µM; in [10], 6.22 µM.
